As usually defined, the IC50 is the concentration that gives 50% inhibition.

Like-named read-outs stand apart in the source and are kept apart here.

Data set [1] concerns P. falciparum chloroquine-resistant (CQR) Dd2 strain. Put plainly: microbe, parasite or virus in culture. It counts as cell-based. The conditions noted are these: Plasmodium falciparum, DD2, read-out: antimalarial activity (IC50 in nM) Dd2.
The test system of data set [2] is P. falciparum chloroquine-resistant (CQR) 7G8 strain. Put plainly: microbe, parasite or virus in culture. It counts as cell-based. The note with it: Plasmodium falciparum, 7G8, read-out: antimalarial activity (IC50 in nM) 7G8.
Data set [3] deals with P. falciparum chloroquine-sensitive (CQS) D6 strain. Kind of data set: Malaria SYBR Green I-based Fluorescence. The class given is cell-based, Plasmodium falciparum.
For data set [4], the system named is P. yoelii (Kenya strain, MR4 MRA-428). Put plainly: In vivo efficacy against murine malaria, modified 4-day test, oral gavage. The conditions noted are these: mice.
Data set [5] is described as follows: HepG2 cytotoxicity assay. The class given is cell-based. The note with it: human, cytotoxicity (IC50 in nM) HepG2, HepG2 cells.
The test system of data set [6] is multidrug-resistant P. yoelii. The conditions noted are these: 100 mg/kg/day, oral route; cited from earlier work.
[7] abbreviates: Plasmodium falciparum, D6, read-out: antimalarial activity (IC50 in nM) D6.

`c1c[nH]c(CCCNCCNC23CC4CC(CC(C4)C2)C3)c1` [Compound 196, N^1-(3-(Pyrrol-2-yl)propyl)-N^2-(adamantan-1-yl)ethane-1,2-diamine]: the IC50 in data set [1], in data set [2] and in data set [3] (setting [7]) was above 2500 nM throughout.

As to `COC1=CC(c2cccn2C)=NC1=Cc1c(Cc2ccc(Cl)cc2)cc(Cc2ccc(Cl)cc2)n1C` [Compound 87, 5’-((3,5-Bis(4-chlorobenzyl)-1-methyl-pyrrol-2-yl)methylene)-4’-methoxy-1-methyl-2,2’-bipyrrole], the IC50 in data set [1], in data set [2] and in data set [3] (setting [7]) was above 2500 nM in each case.

With `CCN(CC)CCCC(C)Nc1ccnc2cc(Cl)ccc12` (stereo not shown) [CQ, chloroquine], the “% suppression of parasitaemia on day 5” value in data set [4] (1 mg/kg × 4 days) amounted to 65%; in data set [4] (4 mg/kg × 4 days), 94%; in data set [4] (16 mg/kg × 4 days), 100%; in data set [4] (64 mg/kg × 4 days) it was 100%. In addition, the results for the IC50 in data set [1], in data set [2] and in data set [3] (setting [7]) were 115 nM, 130 nM and 13 nM, respectively.

`O=C(CNC(=O)c1ccc[nH]1)NC12CC3CC(CC(C3)C1)C2` [Compound 190, N-(2-((Adamantan-1-yl)amino)-2-oxoethyl)-pyrrole-2-carboxamide]: the concentration for half-maximal inhibition (IC50) in data set [1], in data set [2] and in data set [3] (setting [7]) was above 2500 nM each time.

`c1c[nH]c(CNCCNC23CC4CC(CC(C4)C2)C3)c1` [Compound 191, N^1-((Pyrrol-2-yl)methyl)-N^2-(adamantan-1-yl)ethane-1,2-diamine]: the concentration for half-maximal inhibition (IC50) in data set [1], in data set [2] and in data set [3] (setting [7]) was above 2500 nM throughout.

`OC(c1cc(C(F)(F)F)nc2c(C(F)(F)F)cccc12)C1CCCCN1` (stereo not shown) [MQ, mefloquine] showed a half-inhibitory concentration (IC50) in data set [5] of 21800 nM.

As for `CCC1CCCCCCCCC2=N/C(=C\c3[nH]c(-c4ccc[nH]4)cc3OC)C1=C2` (stereo not shown) [Compound 3b, metacycloprodiginine], the mice cured entry in data set [6] is given as “three of four”.

In the case of `CCCCCCCCCCCC1=N/C(=C\c2[nH]c(-c3ccc[nH]3)cc2OC)C=C1` [Compound 1a, undecylprodiginine, reference compound], the half-maximal inhibitory concentration (IC50) in data set [1] was found to be 7.5 nM; in data set [2], 7 nM; in data set [3] (setting [7]), 7.2 nM.

Take `O=C(C=Cc1ccc[nH]1)NCC(=O)NC12CC3CC(CC(C3)C1)C2` [Compound 194]: the IC50 in data set [3] (read-out: antimalarial activity (IC50 in nM) D6) is above 2500 nM.

The values are drawn from publication PMC11177801 (Journal of medicinal chemistry, 2015).
